Where two headings read alike, the source gives them in different places.

What all share (assay type): physicochemical
Data set [1] is described as follows: Form stability test at 50° C. The settings on record: for Crystalline form, storage time 0 day / Form stability after having been placed at 50° C. for 1 day: 50° C.; for Crystalline form, storage time 0 day: 0 day (start); for Crystalline form, storage time 5 days: placed at 50° C. Here is the method: The known ozanimod solid of Preparation Example 1 and ozanimod Form 1 of Example 1 were tested in form stability test. The procedures are detailed as follows: placed about 20 mg of the above two samples respectively at 50° C., and studied their form stability.

Data set [2] can be described thus: Storage at room temperature in desiccators with relative humidity ranging from 10% to 90%. The settings on record: relative humidity 10% to 90%.
Data set [3] can be described thus: Form stability in water (stirred in water). Here is the method:
The form stability in water of the known ozanimod of Preparation Example 1 and ozanimod Form 2 of Example 10 were compared. The procedures are detailed as follows: took about 20 mg of the above two samples respectively, stirred in water, and studied the form stability.

A short description of data set [4]: Form stability under 97% relative humidity. The settings on record: for Crystalline form, storage time 5 days: 97% RH environment; for Crystalline form, storage time 0 day: 0 day (start). Here is the method:
The known ozanimod of Preparation Example 1 and ozanimod Form 3 of Example 19 were compared in their form stability under 97% relative humidity. The procedures are detailed as follows: placed about 20 mg of the above two samples respectively at 97% RH environment, and studied their crystalline form stability.

[5] abbreviates: listed as known amorphous form of ozanimod.

Take `CC(C)Oc1ccc(-c2nc(-c3cccc4c3CC[C@@H]4NCCO)no2)cc1C#N` [Ozanimod Form 1, 5-[3-[(1S)-2,3-dihydro-1-(2-hydroxyethylamino)-1H-inden-4-yl]-1,2,4-oxadiazol-5-yl]-2-isopropoxybenzonitrile]: in data set [1], the “Crystalline form, storage time 0 day” value is given as “Form 1”; the “Form stability after having been placed at 50° C. for 1 day” value was “remained unchanged”; the “Crystalline form, storage time 5 days” value was “Remained Form 1”. The “Crystalline form, storage time 5 days” value in data set [1] (listed as ozanimod Form 1) is recorded as “more stable”. Besides, the “Appearance, XRPD and melting point after 4 months storage” value in data set [2] is reported as “remained unchanged”.

`CC(C)Oc1ccc(-c2nc(-c3cccc4c3CC[C@@H]4NCCO)no2)cc1C#N` [Ozanimod Form 2, 5-[3-[(1S)-2,3-dihydro-1-(2-hydroxyethylamino)-1H-inden-4-yl]-1,2,4-oxadiazol-5-yl]-2-isopropoxybenzonitrile]: the “Crystalline form after stirred in water for 3 days” value is recorded as “Remained Form 2” in data set [3], “remained unchanged” in data set [3] (listed as Form 2) and “remained unchanged” in data set [3] (listed as ozanimod Form 2). Moreover, the “Appearance, XRPD and melting point after 4 months storage” value in data set [2] is listed as “remained unchanged”.

On to `CC(C)Oc1ccc(-c2nc(-c3cccc4c3CC[C@@H]4NCCO)no2)cc1C#N` [Ozanimod Form 3, 5-[3-[(1S)-2,3-dihydro-1-(2-hydroxyethylamino)-1H-inden-4-yl]-1,2,4-oxadiazol-5-yl]-2-isopropoxybenzonitrile], for which, in data set [4], the “Crystalline form, storage time 5 days” value is recorded as “Remained Form 3”; the “Form stability at room temperature and 97% relative humidity for 3 days” value is recorded as “remained unchanged”. Moreover, the “Crystalline form, storage time 0 day” value in data set [4] (97% RH) was “Form 3”. In addition, the “Form stability after storage at 97% RH for 10 days” value in data set [4] (97% RH, 10 days) was “remained unchanged”.

`CC(C)Oc1ccc(-c2nc(-c3cccc4c3CC[C@@H]4NCCO)no2)cc1C#N` [The known ozanimod, 5-[3-[(1S)-2,3-dihydro-1-(2-hydroxyethylamino)-1H-inden-4-yl]-1,2,4-oxadiazol-5-yl]-2-isopropoxybenzonitrile, reference compound]: the “Crystalline form, storage time 0 day” value in data set [1] and in data set [4] (97% RH) was “Amorphous” each time. Besides, the “Form stability after having been placed at 50° C. for 1 day” value in data set [1] (setting [5]) was “showed diffraction peaks”. For the same compound, the “Crystalline form, storage time 5 days” value in data set [1] and in data set [4] was “Weak diffraction” in each case. The “Crystalline form after stirred in water for 3 days” value in data set [3] is recorded as “Transformed to Form 2”; in data set [3] (setting [5]) it was “turned to Form 2”. In data set [4] (setting [5]), the “Form stability at room temperature and 97% relative humidity for 3 days” value is reported as “turned to Form 3”.

The values above are taken from patent US11117875B2, “Crystalline forms, preparation methods and pharmaceutical compositions of ozanimod” (Hangzhou SoliPharma Co., Ltd., priority 2016, dated 2021).
